Key:
[1] = biological target: Sphingosine 1-phosphate receptor 1 (Homo sapiens, UniProt P21453); test: Agonist activity at human S1P1R expressed in RH7777 membranes assessed as [35S]GTPgammaS binding after 30 mins; assay type: functional, cell membranes
[2] = biological target: Sphingosine 1-phosphate receptor 3 (Homo sapiens, UniProt Q99500); test: Agonist activity at human S1P3R expressed in RBL membranes assessed as [35S]GTPgammaS binding after 30 mins; assay type: functional, cell membranes
[3] = Chromatographic hydrophobicity index, log D of the compound at pH 10.5; assay type: physicochemical; settings: buffer
[4] = Chromatographic hydrophobicity index, log D of the compound at pH 2; assay type: physicochemical; settings: buffer
Rattus norvegicus [5] = test: Reduction of lymphocyte count in rat at 3 mg/kg, po measured at 12 hrs relative to control; assay type: functional
Rattus norvegicus [6] = test: Reduction of lymphocyte count in rat at 3 mg/kg, po measured at 24 hrs relative to control; assay type: functional
Rattus norvegicus [7] = test: Reduction of lymphocyte count in rat at 3 mg/kg, po measured at 4 hrs relative to control; assay type: functional
[8] = Chromatographic hydrophobicity index, log D of the compound at pH 7.4; assay type: physicochemical; settings: buffer
Rattus norvegicus [9] = test: Reduction of lymphocyte count in rat at 3 mg/kg, po measured at 8 hrs relative to control; assay type: functional

Chain of Sphingosine 1-phosphate receptor 3 (Q99500 whole entry): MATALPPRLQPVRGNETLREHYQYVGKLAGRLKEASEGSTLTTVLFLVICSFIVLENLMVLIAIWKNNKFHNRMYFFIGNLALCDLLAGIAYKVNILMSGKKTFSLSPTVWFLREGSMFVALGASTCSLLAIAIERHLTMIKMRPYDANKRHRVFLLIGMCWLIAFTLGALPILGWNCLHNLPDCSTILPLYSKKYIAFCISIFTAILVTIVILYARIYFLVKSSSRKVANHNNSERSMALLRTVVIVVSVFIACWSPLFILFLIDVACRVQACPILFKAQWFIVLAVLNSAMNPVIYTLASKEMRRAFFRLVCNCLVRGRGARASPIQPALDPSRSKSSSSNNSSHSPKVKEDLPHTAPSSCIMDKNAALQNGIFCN
Chain of Sphingosine 1-phosphate receptor 1 (P21453 whole entry): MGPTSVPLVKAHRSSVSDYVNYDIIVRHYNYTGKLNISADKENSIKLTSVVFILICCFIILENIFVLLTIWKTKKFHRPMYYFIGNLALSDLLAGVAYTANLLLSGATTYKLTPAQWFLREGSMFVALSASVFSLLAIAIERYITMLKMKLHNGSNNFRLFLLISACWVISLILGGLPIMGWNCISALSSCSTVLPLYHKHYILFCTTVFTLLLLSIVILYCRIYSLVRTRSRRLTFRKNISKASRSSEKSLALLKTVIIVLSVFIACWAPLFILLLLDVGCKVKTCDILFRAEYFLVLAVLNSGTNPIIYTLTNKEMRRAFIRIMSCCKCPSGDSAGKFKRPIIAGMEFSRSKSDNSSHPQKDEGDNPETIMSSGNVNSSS

SMILES	EC50 [1]	EC50 [2]	other results
CC(C)Oc1ccc(-c2nc(-c3cccc4c3CCNC4)no2)cc1Cl	39.8 nM	15800 nM	–
CC(C)Oc1ccc(-c2nc(-c3ccc4c(c3)CCCNC4)no2)cc1Cl	398 nM	> 31600 nM	–
CC(C)Oc1ccc(-c2nc(-c3cccc4c3CN(CCC(=O)O)C4)no2)cc1Cl	316 nM	7940 nM	–
CC(C)Oc1ccc(-c2nc(-c3cccc4c3OCCNC4)no2)cc1Cl	79.4 nM	> 31600 nM	–
CC(C)Oc1ccc(-c2nc(-c3ccc4c(c3)CN(CCCC(=O)O)CCO4)no2)cc1C#N	63.1 nM	25100 nM	–
CC(C)Oc1ccc(-c2nc(-c3cccc4c3CCNC4CC(=O)O)no2)cc1C#N (stereo unspecified)	5.01 nM	12600 nM	chromatographic logD [3]: 1.27; chromatographic logD [4]: 1.17; Activity (Rattus norvegicus [5]): 108; Activity (Rattus norvegicus [6]): 132; Activity (Rattus norvegicus [7]): 46; chromatographic logD [8]: 1.58; Activity (Rattus norvegicus [9]): 69
CC(C)Oc1ccc(-c2nc(-c3ccc4c(c3)CN(CCC(=O)O)CCO4)no2)cc1C#N	50.1 nM	> 31600 nM	–
CC(C)Oc1ccc(-c2nc(-c3ccc4c(c3)CCN(CCC(=O)O)CC4)no2)cc1Cl	7.94 nM	10000 nM	–
CC(C)Oc1ccc(-c2nc(-c3cccc4c3CCN(CC(=O)O)C4)no2)cc1C#N	7.94 nM	> 31600 nM	–
CC(C)Oc1ccc(-c2nc(-c3cccc4c3OCCNC4CCC(=O)O)no2)cc1Cl (stereo unspecified)	5.01 nM	> 31600 nM	–
CC(C)Oc1ccc(-c2nc(-c3ccc4c(c3)OCCNC4)no2)cc1Cl	316 nM	> 31600 nM	–
CC(C)Oc1ccc(-c2nc(-c3ccc4c(c3)CNC(C(=O)O)CO4)no2)cc1Cl (stereo unspecified)	5.01 nM	794 nM	–
CC(C)Oc1ccc(-c2nc(-c3ccc4c(c3)CNCCO4)no2)cc1Cl	126 nM	15800 nM	–
CC(C)Oc1ccc(-c2nc(-c3cccc4c3CCCNC4)no2)cc1Cl	631 nM	> 31600 nM	–
CC(C)Oc1ccc(-c2nc(-c3ccc4c(c3)OCCNC4)no2)cc1C#N	79.4 nM	> 31600 nM	–
CC(C)Oc1ccc(-c2nc(-c3cccc4c3CNC4)no2)cc1Cl	7.94 nM	> 31600 nM	–
CC(C)Oc1ccc(-c2nc(-c3ccc4c(c3)CCN(CCC(=O)O)C4)no2)cc1C#N	6.31 nM	3980 nM	–
